Source: patent US20110154513A1, “PROBE FOR VISUALIZING NEURAL ACTIVITY” (University of Toyama, priority 2008, published 2011)

Key:
hippocampal nerve cells = test: Luminescence (photon count) of probes expressed in cultured hippocampal nerve cells after stimulation; format: cell-based, rat
Experimental: On day 18 of pregnancy, a rat fetus was taken out of a pregnant rat, and the brain was separated therefrom in cold PBS. Furthermore, brain slices containing hippocampal nerve cells were separated from the cerebrum. The separated hippocampal cells were reacted with 0.125% trypsin (protease) at room temperature for 20 minutes in a test tube such that adhesion factors on the cell surface were degraded to attenuate cell-cell adhesion. Then, the test tube was left standing for trypsin removal. After precipitation of the brain slices in the bottom of the test tube, the trypsin solution as a supernatant was removed by aspiration. Subsequently, a DMEM medium containing 10% serum was added to the test tube. The test tube was left standing again, and the supernatant was removed. The brain slices were dissociated into individual cells by repeating approximately 10 times aspiration and dropping using a plastic dropper. Then, the cells were cultured in a plastic dish.
On culture day 4, the plasmid encoding the fusion protein 1 of Example 1 was gene-transferred into the cells. The gene transfer method was performed using Lipofectamine 2000 in the same way as in the HEK293 cells. Two days after the gene transfer, the medium was replaced by an Opti-MEM medium (Invitrogen Corp.) containing 0.5 mM luciferin EF (Promega Corp.), a luminescent substrate of luciferase. The luminescence intensity was measured using a luminometer AEQUORIA (Hamamatsu Photonics K.K.). This apparatus counts the number of photons generated from cells during culture placed together with a plastic dish in a dark box. The measurement was performed for 1 consecutive hour, and the luminescence intensity at 1-minute intervals was plotted on the ordinate of a graph. Immediately before the measurement, the cells were stimulated with forskolin, glutamate, KCl, or the like.

polymerized actin = test: Rhodamine-phalloidin staining of polymerized actin in HEK293T cells; format: cell-based; conditions: varying concentrations of inhibitor
Experimental: FIG. 8 is a photograph showing results of Example 9. The photograph is an image of polymerized actin stained with rhodamine-phalloidin in the presence of varying concentrations of a polymerization inhibitor;
HEK293T cells were treated with latrunculin A and then fixed in 4% paraformaldehyde, and only polymerized actin was stained using F-Actin Visualization Biochem Kit (Cosmo Bio Co., Ltd.).
An image of polymerized actin stained with rhodamine-phalloidin in the presence of varying concentrations of the polymerization inhibitor was confirmed.

actin polymerization = test: Luminescence of IRES-linked split luciferase-actin fusion proteins in HEK293 cells with actin polymerization inhibitor; format: cell-based; conditions: inhibitor added 3 hours before measurement, varying concentrations
Text: FIG. 7 is a graph showing results of Example 8. The graph depicts the relationship between an actin polymerization inhibitor concentration and luminescence from split luciferase-actin fusion proteins bound via an IRES sequence and expressed in HEK293 cells;
For preparing a form suitable for transgenic mouse preparation, plasmids were constructed for a fusion protein comprising two fusion proteins bound via an IRES sequence (the resultant fusion protein is referred to as a fusion protein 13: LucN-Actin-IRES-LucC-actin). LucC-Actin and LucN-Actin are thereby translated from one mRNA and expressed in cells. The gene transfer was performed in the same way as in Example 1. Moreover, in this experiment, an actin polymerization inhibitor latrunculin A was added into a medium 3 hours before luminescence measurement. Moreover, the luminescence measurement used a luminometer AEQUORIA (Hamamatsu Photonics K.K.).
This is the evidence that the luminescence of the prepared protein serves as an index for actin polymerization.

In the case of “wild-type luciferase: wild-type firefly luciferase (Promega Corp.), control experiment”, the “response of luminescence to KCl” value (hippocampal nerve cells; probe expressed in nerve cells, KCl stimulation) is reported as “does not exhibit the response to KCl”.

In the case of `C/C1=C/C(=O)O[C@@H]2C[C@@H](CC[C@H](C)/C=C\C=C\CC1)O[C@@](O)([C@@H]1CSC(=O)N1)C2` [latrunculin A], the “polymerized actin (rhodamine-phalloidin staining)” value (polymerized actin) is reported as “decreased in a concentration-dependent manner” and the “luminescence of split luciferase-actin probe” value (actin polymerization) is reported as “decreased in a concentration-dependent manner”.

In the case of `[Cl-].[K+]` [KCl, potassium chloride], the “increase in luminescence intensity by KCl stimulation” value (hippocampal nerve cells; fusion protein 1 expressed in nerve cells, compared to before addition of KCl) is reported as “approximately 6 times” and the “effect of stimulation on luminescence intensity” value (hippocampal nerve cells; nerve cells expressing fusion protein 5, 50 mM KCl, alone or with additive) is reported as “increases the luminescence intensity”.
